This note sets out measurements from US12559450B2, “Lipidoids for nucleic acid transfection and use thereof” (Ustav Organicke Chemie a Biochemie AV CR, v.v.i., priority 2020, dated 2026).

Data set [1] addresses STING protein (Homo sapiens, UniProt Q86WV6, H232R). The data set is described as follows: STING activation reporter assay (ISRE luciferase, HEK293T) with cGAMP-LNPs. Conditions: read-out: EC50 STING activation; 2′,3′-cGAMP transfected with cGAMP-LNPs. On the technique in general: In a reporter assay the amount or activity of a reporter protein is the signal.
Experimental: Cells were transferred to poly-D-lysine (Sigma-Aldrich)-coated 96-well plates (Greiner Bio-One) at a density of 2.5×10^4 in DMEM medium containing glucose (containing L-glutamine; Biowest) supplemented with 10% FBS (Capricorn Scientific) and 1% penicillin-streptomycin (Biowest). After incubation at 37° C. in 5% CO2 overnight, serially diluted compounds were added to the cells for 7 hours. In parallel, HEK293T cells were incubated with the test compounds alone for 30 minutes, washed twice with fresh medium, and then cultured for an additional 6.5 hours. Finally, 50 μl of cell culture medium was mixed with 30 μl of Bright-Glo Luciferase Assay System reagent (Promega) in white 96-well plates and luminescence was read in a Spark® spectrophotometer (TECAN, Grodig).
For data set [2], the system named is U2OS. Nature of the data set: Cellular toxicity of mRNA-LNP, CellTiterGlo 2.0 viability. The data set is classed as cell-based, human. Conditions: total lipid 100 μM (context of the sentence). The procedure: A human cell line derived from embryonic kidney cells (HEK293), the same line expressing SV40 large T antigen (HEK293T), human osteosarcoma-derived cell line (U2OS), and human hepatocyte carcinoma cell line (HepG2) were cultured in 96-well plates (5×10^4 cells in 100 μl of culture medium per well) in Dulbecco's modified medium (DMEM) or in IMDM medium (Iscove's Modified Dulbecco's medium) supplemented with 10% foetal bovine serum (FBS) at 37° C. in 5% CO2. Cells were transfected with 2 μl of mRNA-LNPs generated in triplicates in Example 25 (the final total concentration of all lipid components in the well was 20 μM) or 10 μl of mRNA-LNPs (the final total concentration of all lipid components in the well was 100 μM) and subsequently incubated for 24 hours. The cytotoxicity of LNPs was analysed in a CellTiterGlo 2.0 cell viability assay (Promega, USA). Cell viability was normalized to non-transfected cells (control).
(In general: Cellular ATP, detected with luciferase, serves as a proxy for viable cell number.)

Structures are written as SMILES.

Chain of STING protein (Q86WV6 whole entry H232R): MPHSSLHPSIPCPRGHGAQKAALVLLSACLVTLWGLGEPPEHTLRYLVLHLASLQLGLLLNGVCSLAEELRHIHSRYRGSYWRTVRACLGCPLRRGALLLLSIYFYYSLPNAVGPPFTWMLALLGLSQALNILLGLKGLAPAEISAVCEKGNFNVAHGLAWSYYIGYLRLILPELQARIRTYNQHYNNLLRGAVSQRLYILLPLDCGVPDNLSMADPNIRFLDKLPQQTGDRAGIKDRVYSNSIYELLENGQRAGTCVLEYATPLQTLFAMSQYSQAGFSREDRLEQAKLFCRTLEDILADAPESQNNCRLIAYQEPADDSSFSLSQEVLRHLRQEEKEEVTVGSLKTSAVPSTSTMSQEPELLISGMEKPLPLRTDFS

Consider `CCCCCCCCCCCCN(CCCCCCCCCCCC)CCCCCNC(=O)C12CC3CC(C(=O)NCCCCCN(CCCCCCCCCCCC)CCCCCCCCCCCC)(C1)CC(C(=O)NCCCCCN(CCCCCCCCCCCC)CCCCCCCCCCCC)(C3)C2` [4d], for which the concentration for a half-maximal effect (EC50) in data set [1] was 2 ± 0.36 nM. The “toxicity of particles formed by the lipidoid (in words)” value in data set [2] is on record as “non-toxic”.

Usually EC50 stands for the concentration at which the effect is half-maximal.
